Results from ChEMBL document CHEMBL4699399, “Discovery of isoxazolyl-based inhibitors of Plasmodium falciparum cGMP-dependent protein kinase” (RSC Med Chem, 2020).

Key:
Plasmodium falciparum = test: Inhibition of recombinant Plasmodium falciparum PKG using FAM-PKAtide as substrate at 10 uM preincubated for 15 mins followed by substrate addition and measured after 1 hr by IMAP fluorescence polarization assay relative to control; conditions: time 75.0 min
[1] = Inhibition of recombinant Plasmodium falciparum PKG using FAM-PKAtide as substrate preincubated for 15 mins followed by substrate addition and measured after 1 hr by IMAP fluorescence polarization assay
[2] = Inhibition of human PKG measured up to 10 uM

inhibition (Plasmodium falciparum) [%]	IC50 [1] [nM]	inhibition (INH) [2]	Compound
5			CCN(CC)Cc1onc(-c2cccc(Cl)c2)c1-c1ccnc(N[C@@H]2CCN(Cc3ccn(C)n3)C2)n1
	2000		Cc1onc(-c2ccccc2)c1-c1ccnc(N[C@@H]2CCN(C(=O)c3cnccn3)C2)n1
	620		CCN(CC)Cc1onc(-c2cccc(Cl)c2)c1-c1ccnc(N[C@@H]2CCN(C(=O)c3nc[nH]n3)C2)n1
23			CCOC(=O)c1onc(-c2ccccc2)c1-c1ccnc(N[C@@H]2CCN(C(=O)c3cnoc3)C2)n1
	2100		Cc1onc(-c2ccccc2Cl)c1-c1ccnc(N[C@@H]2CCN(C(=O)c3cnoc3)C2)n1
	750		Cc1onc(-c2ccccc2)c1-c1ccnc(N[C@@H]2CCN(C(=O)c3cnoc3)C2)n1
	900		CCN(CC)Cc1onc(-c2ccccc2F)c1-c1ccnc(N[C@@H]2CCN(C(=O)c3cnoc3)C2)n1
	15		CCN(CC)Cc1onc(-c2cccc(Cl)c2)c1-c1ccnc(N[C@@H]2CCN(C(=O)c3ccsn3)C2)n1
	1400		O=C(c1cnoc1)N1CC[C@@H](Nc2nccc(-c3c(-c4ccccc4)noc3CN3CCCC3)n2)C1
60			CCN(CC)Cc1onc(-c2cccc(Cl)c2)c1-c1ccnc(N2CCCC2CC(=O)c2ccsn2)n1 (racemic)
	97		CCN(CC)Cc1onc(-c2cccc(Cl)c2)c1-c1ccnc(N[C@@H]2CCN(C(=O)c3cn[nH]c3)C2)n1
	850	Not Active	CCN(CC)Cc1onc(-c2ccccc2)c1-c1ccnc(N[C@@H]2CCN(C(=O)c3cnoc3)C2)n1
75			CCN(CC)Cc1onc(-c2cccc(Cl)c2)c1-c1ccnc(N2CCCC(C(=O)c3ccsn3)C2)n1 (racemic)
	1000		O=C(c1cnoc1)N1CC[C@@H](Nc2nccc(-c3c(-c4ccccc4)noc3CN3CCOCC3)n2)C1
	2600		CCN(CC)Cc1onc(-c2cccc(Cl)c2)c1-c1ccnc(N2CC(C(=O)c3ccsn3)C2)n1
	74		CCN(CC)Cc1onc(-c2cccc(Cl)c2)c1-c1ccnc(N[C@@H]2CCN(C(=O)c3cnsc3)C2)n1

inhibition (Plasmodium falciparum) [%]	IC50 [1] [nM]	inhibition (INH) [2]	Compound
40			CCN(CC)Cc1onc(-c2cccc(Cl)c2)c1-c1ccnc(N[C@@H]2CCN(S(=O)(=O)c3cnn(C)c3)C2)n1
	2800		Cc1onc(-c2ccc(Cl)cc2)c1-c1ccnc(N[C@@H]2CCN(C(=O)c3cnoc3)C2)n1
	660		CCN(CC)Cc1onc(-c2ccc(F)cc2)c1-c1ccnc(N[C@@H]2CCN(C(=O)c3cnoc3)C2)n1
	1000		O=C(c1cnoc1)N1CC[C@@H](Nc2nccc(-c3c(-c4ccccc4)noc3CO)n2)C1
	120		CCN(CC)Cc1onc(-c2cccc(Cl)c2)c1-c1ccnc(N[C@@H]2CCN(C(=O)c3cc[nH]n3)C2)n1
	25		CCN(CC)Cc1onc(-c2cccc(Cl)c2)c1-c1ccnc(N[C@@H]2CCN(C(=O)c3ccon3)C2)n1
46			CCN(CC)Cc1onc(-c2cccc(Cl)c2)c1-c1ccnc(N2CCC(C(=O)c3ccsn3)CC2)n1
	360		CCN(CC)Cc1onc(-c2cccc(F)c2)c1-c1ccnc(N[C@@H]2CCN(C(=O)c3cnoc3)C2)n1
	210	Not Active	Cc1onc(-c2cccc(Cl)c2)c1-c1ccnc(N[C@@H]2CCN(C(=O)c3cnoc3)C2)n1
60			O=C(c1cnoc1)N1CC[C@H](Nc2nccc(-c3c(-c4ccccc4)noc3CO)n2)C1
	13		CCN(CC)Cc1onc(-c2cccc(Cl)c2)c1-c1ccnc(N[C@@H]2CCN(C(=O)c3cnoc3)C2)n1
	38		CCN(CC)Cc1onc(-c2cccc(Cl)c2)c1-c1ccnc(N[C@@H]2CCN(C(=O)c3cnn(C)c3)C2)n1
	1000		Cc1onc(-c2ccccc2)c1-c1ccnc(N[C@@H]2CCN(C(=O)c3cccnc3)C2)n1
5			CCN(CC)Cc1onc(-c2cccc(Cl)c2)c1-c1ccnc(N[C@@H]2CCN(Cc3cnn(C)c3)C2)n1
	47		CCN(CC)Cc1onc(-c2cccc(Cl)c2)c1-c1ccnc(N[C@@H]2CCN(C(=O)c3c[nH]cn3)C2)n1
	10		CCN(CC)Cc1onc(-c2cccc(Cl)c2)c1-c1ccnc(N[C@@H]2CCN(C(=O)c3ccn(C)n3)C2)n1
